Molecules are shown by their SMILES. “And” between values parts separate entries of the source, which are not always exact repeats. Equal entries are not always repeated.

For the first assay, the target named is recombinant active human PAI-1 (Homo sapiens (Human), UniProt P05121). The assay can be described thus: Fluorometric PAI-1/uPA IC50 plate assay at pH 7.4. The class given is biochemical. The settings on record: physiologic buffer (40 mM HEPES, 100 mM NaCl, 0.05% Tween-20, 10% DMSO), read-out: PAI-1/uPA IC50 in buffer. The protocol: To determine the efficacy of various synthesized compounds as PAI-1 inhibitors, a fluorometric plate assay was carried out to measure the half maximal inhibitory concentration (IC50) of these compounds on recombinant active human PAI-1 in vitro. An IC50 is a measure of the effectiveness of a compound in inhibiting biological or biochemical function. Stated another way, IC50 represents the concentration of a drug that is required for 50% inhibition in vitro.
Chain of recombinant active human PAI-1 (P05121 24-402): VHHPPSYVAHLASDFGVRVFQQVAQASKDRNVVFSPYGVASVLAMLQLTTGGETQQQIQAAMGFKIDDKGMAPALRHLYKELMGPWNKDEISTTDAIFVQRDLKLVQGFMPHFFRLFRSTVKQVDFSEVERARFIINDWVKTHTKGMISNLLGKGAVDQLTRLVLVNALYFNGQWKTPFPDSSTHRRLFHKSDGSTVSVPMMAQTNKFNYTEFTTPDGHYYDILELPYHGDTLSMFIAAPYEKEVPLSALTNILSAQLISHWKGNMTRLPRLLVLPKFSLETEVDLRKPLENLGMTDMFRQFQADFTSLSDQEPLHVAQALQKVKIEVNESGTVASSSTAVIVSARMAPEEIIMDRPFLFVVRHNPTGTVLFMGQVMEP
PAI-1 inhibitor compounds were dissolved in DMSO to a final concentration of (10-50 mM), depending upon solubility. Compounds were then diluted in physiologic buffer (40 mM HEPES, 100 mM NaCl, 0.05% Tween-20, pH7.4) containing 10% DMSO and a dilution series (from 0 to 1000 uM depending on solubility) was prepared. 80 μL of compound was added per well to a 96-well black, opaque microplate in duplicate. 10 μL of 20 nM Recombinant active human PAI-1 (Molecular Innovations) in physiologic buffer (40 mM HEPES, 100 mM NaCl, 0.05% Tween-20, 10% DMSO, pH 7.4), or […] physiologic buffer with 10% human plasma, was added and the mixture was agitated for 15 minutes at room temperature. 10 μL of 25 nM uPA (Rheotromb®) was added to each reaction well and the plate was agitated for an additional 30 minutes at room temperature. Tripeptide aminomethylcoumarin Gly-Gly-Arg-AMC (Calbiochem) fluorogenic substrate (100 μL of 100 μM) was then added and residual uPA activity was determined based upon cleavage of this substrate. The rate of AMC release by uPA (fluorescence) was measured at an excitation wavelength of 370 nm and an emission wavelength of 440 nm. Controls included PAI-1 and uPA in the absence of compound and uPA alone. Percent PAI-1 inhibition was calculated using the following formula: [(uPA alone-uPA/PAI-1+ compound)/(uPA alone-PAI-1/uPA)]*100%. The IC50 was calculated using Graphit (IC50 0-100%).
For `O=C(NO)C(=O)NCc1ccc(Cl)c(C(F)(F)F)c1` [C280], the IC50 is 207 µM and 203 µM.

For the molecule `COc1ccc(CNC(=O)C(=O)NN)c(OC)c1` [C281], the IC50 stood at 2290 µM.

In the case of `Cc1cc(Cl)ccc1CNC(=O)C(=O)NN` [C282], the IC50 is 225 µM and 219 µM.

As for `O=C(NO)NCc1ccc(Cl)c(C(F)(F)F)c1` [C284, 1-(4-chloro-3-(trifluoromethyl)benzyl)-3-hydroxyurea], the IC50 worked out at 2480 µM.

For `O=C(NCc1ccc(Cl)c(C(F)(F)F)c1)c1n[nH]c(=O)o1` [C285, N-(4-chloro-3-(trifluoromethyl)benzyl)-5-oxo-4,5-dihydro-1,3,4-oxadiazole-2-carboxamide], the IC50 is 422 µM and 388 µM.

On to `Cc1cc(C(=O)NCc2ccc(Cl)c(C(F)(F)F)c2)no1` [C286], for which the IC50 was found to be 580 µM.

For `NNC(=O)CCC(=O)NCc1ccc(F)c(C(F)(F)F)c1` [C287], the IC50 was found to be 1190 µM.

On to `COC(=O)CCC(=O)NCc1cccc(C(F)(F)F)c1` [C288], for which the IC50 is 2910 µM.

In the case of `NNC(=O)CCC(=O)NCc1cccc(C(F)(F)F)c1` [C289], the IC50 came out at 2730 µM.

With `COc1cccc(CNC(=O)C(=O)NN)c1` [C295], the IC50 amounted to 1340 µM.

On to `NNC(=O)C(=O)NCc1ccc(C(F)(F)F)cc1` [C296], for which the IC50 was determined as 112 µM.

Turning to `NNC(=O)C(=O)NCc1cccc(C(F)(F)F)c1` [C297], the IC50 is 136 µM.

For the molecule `Cc1cc(Cl)ccc1CNC(=O)c1n[nH]c(=O)o1` [C299], the IC50 was determined as 238 µM.

Consider `Cc1cc(Cl)ccc1CNC(=O)C(=O)NO` [C300], for which the IC50 worked out at 5490 µM.

For `NNC(=O)C(=O)NCc1cccc(Cl)c1Cl` [C301], the IC50 is 173 µM.

Take `NNC(=O)C(=O)NCc1cc(F)c(F)c(F)c1` [C304]: the IC50 was 162 µM.

As for `Cc1ccc(CNC(=O)C(=O)NN)cc1F` [C305], the IC50 came out at 224 µM.

Turning to `Cc1ccc(CNC(=O)c2n[nH]c(=O)o2)cc1F` [C306], the IC50 stood at 1160 µM.

As to `NNC(=O)C(=O)NCc1ccc(Cl)cc1F` [C307], the IC50 worked out at 465 µM.

As for `O=C(O)C(=O)NCc1ccc(Cl)c(C(F)(F)F)c1` [C309, 2-((4-chloro-3-(trifluoromethyl)benzyl)amino)-2-oxoacetic acid], the IC50 amounted to 1200 µM.

With `CC(C)=NNC(=O)C(=O)NCc1cc(F)cc(F)c1` [C313], the IC50 was found to be 1200 µM.

For the molecule `CONC(=O)C(=O)NCc1ccc(Cl)c(C(F)(F)F)c1` [C320, N-(4-chloro-3-(trifluoromethyl)benzyl)-N′-methoxyoxalamide], the IC50 was determined as 329 µM.

As to `COc1cc(CNC(=O)C(=O)NN)cc(OC)c1` [C322], the IC50 is 4320 µM.

Staying with this assay, now noted: physiologic buffer with 1.5% BSA (15 mg/mL), read-out: PAI-1/uPA IC50 in 1.5% BSA buffer.
Consider `O=C(NO)C(=O)NCc1ccc(Cl)c(C(F)(F)F)c1` [C280], for which the IC50 is 166 µM and 159 µM.

As for `Cc1cc(Cl)ccc1CNC(=O)C(=O)NN` [C282], the IC50 was 163 µM and 154 µM.

For `O=C(NCc1ccc(Cl)c(C(F)(F)F)c1)c1n[nH]c(=O)o1` [C285, N-(4-chloro-3-(trifluoromethyl)benzyl)-5-oxo-4,5-dihydro-1,3,4-oxadiazole-2-carboxamide], the IC50 was found to be 265 µM.

`NNC(=O)CCC(=O)NCc1ccc(F)c(C(F)(F)F)c1` [C287]: the IC50 worked out at 363 µM.

Take `COC(=O)CCC(=O)NCc1cccc(C(F)(F)F)c1` [C288]: the IC50 turned out to be 1060 µM.

Turning to `NNC(=O)CCC(=O)NCc1cccc(C(F)(F)F)c1` [C289], the IC50 was found to be 1100 µM.

Take `COc1cccc(CNC(=O)C(=O)NN)c1` [C295]: the IC50 was 776 µM.

In the case of `NNC(=O)C(=O)NCc1ccc(C(F)(F)F)cc1` [C296], the IC50 turned out to be 69 µM.

In the case of `NNC(=O)C(=O)NCc1cccc(C(F)(F)F)c1` [C297], the IC50 is 111 µM.

In the case of `Cc1cc(Cl)ccc1CNC(=O)c1n[nH]c(=O)o1` [C299], the IC50 was found to be 739 µM.

On to `NNC(=O)C(=O)NCc1cccc(Cl)c1Cl` [C301], for which the IC50 was 128 µM.

Take `NNC(=O)C(=O)NCc1cc(F)c(F)c(F)c1` [C304]: the IC50 amounted to 90 µM.

In the case of `Cc1ccc(CNC(=O)C(=O)NN)cc1F` [C305], the IC50 was 81 µM.

For `Cc1ccc(CNC(=O)c2n[nH]c(=O)o2)cc1F` [C306], the IC50 is 403 µM.

For `NNC(=O)C(=O)NCc1ccc(Cl)cc1F` [C307], the IC50 was found to be 99 µM.

In the case of `CC(C)=NNC(=O)C(=O)NCc1cc(F)cc(F)c1` [C313], the IC50 is 532 µM.

For the molecule `CONC(=O)C(=O)NCc1ccc(Cl)c(C(F)(F)F)c1` [C320, N-(4-chloro-3-(trifluoromethyl)benzyl)-N′-methoxyoxalamide], the IC50 was determined as 513 µM.

Staying with this assay, now noted: physiologic buffer with 10% human plasma, read-out: PAI-1/uPA IC50 in 10% plasma buffer.
As for `O=C(NO)C(=O)NCc1ccc(Cl)c(C(F)(F)F)c1` [C280], the IC50 stood at 168 µM.

Take `Cc1cc(Cl)ccc1CNC(=O)C(=O)NN` [C282]: the IC50 stood at 121 µM.

In the case of `O=C(NCc1ccc(Cl)c(C(F)(F)F)c1)c1n[nH]c(=O)o1` [C285, N-(4-chloro-3-(trifluoromethyl)benzyl)-5-oxo-4,5-dihydro-1,3,4-oxadiazole-2-carboxamide], the IC50 was found to be 306 µM.

Take `NNC(=O)CCC(=O)NCc1ccc(F)c(C(F)(F)F)c1` [C287]: the IC50 amounted to 304 µM.

Regarding `COC(=O)CCC(=O)NCc1cccc(C(F)(F)F)c1` [C288], the IC50 is 752 µM.

As to `NNC(=O)CCC(=O)NCc1cccc(C(F)(F)F)c1` [C289], the IC50 amounted to 733 µM.

Regarding `COc1cccc(CNC(=O)C(=O)NN)c1` [C295], the IC50 is 736 µM.

For the molecule `NNC(=O)C(=O)NCc1ccc(C(F)(F)F)cc1` [C296], the IC50 came to 64 µM.

For `NNC(=O)C(=O)NCc1cccc(C(F)(F)F)c1` [C297], the IC50 came to 87 µM.

With `Cc1cc(Cl)ccc1CNC(=O)c1n[nH]c(=O)o1` [C299], the IC50 worked out at 628 µM.

Turning to `NNC(=O)C(=O)NCc1cccc(Cl)c1Cl` [C301], the IC50 worked out at 106 µM.

For `NNC(=O)C(=O)NCc1cc(F)c(F)c(F)c1` [C304], the IC50 was found to be 74 µM.

In the case of `Cc1ccc(CNC(=O)C(=O)NN)cc1F` [C305], the IC50 was determined as 62 µM.

Regarding `Cc1ccc(CNC(=O)c2n[nH]c(=O)o2)cc1F` [C306], the IC50 came to 405 µM.

For `NNC(=O)C(=O)NCc1ccc(Cl)cc1F` [C307], the IC50 amounted to 101 µM.

As to `CC(C)=NNC(=O)C(=O)NCc1cc(F)cc(F)c1` [C313], the IC50 was 490 µM.

As to `CONC(=O)C(=O)NCc1ccc(Cl)c(C(F)(F)F)c1` [C320, N-(4-chloro-3-(trifluoromethyl)benzyl)-N′-methoxyoxalamide], the IC50 amounted to 693 µM.

Values taken from patent US9718760B2, “Plasminogen activator inhibitor-1 inhibitors and methods of use thereof” (THE REGENTS OF THE UNIVERSITY OF MICHIGAN, priority 2012, dated 2017).
